Test results: patent publication US8338423B2, “Compositions for the treatment of hyperphenylalaninemia” (Universidad de Zaragoza, priority 2007, dated 2012)

Key:
wt-PAH = target: T1, wt-PAH (Homo sapiens, UniProt P00439); test: Quenching of PAH Trp-emission fluorescence; format: binding; conditions: apparent affinity, data not shown; read-out: ligand concentration inducing a 50% decrease in Trp-fluorescence
T1 construct: made in house; host or cells: E. coli
T1 sequence (P00439 1-452): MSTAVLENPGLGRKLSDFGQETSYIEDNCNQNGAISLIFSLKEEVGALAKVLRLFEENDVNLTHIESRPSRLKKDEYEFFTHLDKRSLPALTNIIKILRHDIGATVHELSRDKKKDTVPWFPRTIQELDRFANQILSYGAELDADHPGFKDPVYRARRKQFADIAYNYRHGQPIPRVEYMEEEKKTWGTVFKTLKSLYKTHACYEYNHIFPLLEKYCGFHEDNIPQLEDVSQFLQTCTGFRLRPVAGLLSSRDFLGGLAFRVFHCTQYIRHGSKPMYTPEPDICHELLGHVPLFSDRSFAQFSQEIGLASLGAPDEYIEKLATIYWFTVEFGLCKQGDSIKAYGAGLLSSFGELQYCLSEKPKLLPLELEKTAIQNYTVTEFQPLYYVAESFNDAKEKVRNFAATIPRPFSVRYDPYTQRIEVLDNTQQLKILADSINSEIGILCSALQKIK
Experimental: As expected, the stabilizing effect was concentration dependent for all four of them, being significant at 25 μM for compounds 11 and 13 (FIG. 2). […] The apparent affinities of wt-PAH for these four ligands were further studied by monitoring quenching effects of these ligands on PAH Trp-emission fluorescence (not shown). Ligands 11 and 13 induced significant fluorescence quenching, inducing a 50% decrease in Trp-fluorescence at ˜30 and ˜3 μM for ligands 11 and 13, respectively.

[1] = Solubility in dosing stocks and final solutions; format: physicochemical; conditions: 50 mg/ml in 100% DMSO stock and 5 mg/ml in 10% DMSO and 10% glucose
Experimental: Solutions of Compounds 11 and Compound 13 were prepared at concentrations of 5 mg/ml (14 mM) in 10% DMSO and 10% glucose. For that, stocks of 50 mg/ml (140 mM) of each compound in 100% DMSO were diluted 1:10 with a 10% glucose solution. Both the stocks and the final solutions of Compounds 11 and 13 are in fact suspensions since the compound is not soluble al these conditions.

[2] = tested on: wt-PAH and I65T and R68S mutants expressed in A293 cells; test: PAH activity in extracts of transiently transfected A293 cells; format: cell-based, human; conditions: 40 μM compound, 24 h, vs DMSO 1% controls (FIG. 4A)
Experimental: Human embryonic kidney cells (A293; purchased from Invitrogen) were grown in Dulbecco's Modified Eagle's Medium (DMEM) containing 4.5 g/l glucose, 10% (v/v) fetal calf serum, 2 mM L-glutamine, 100 i.u./ml penicillin, 100 μg/ml streptomycin and 0.25 mg/ml G-418. A293 cells were transiently transfected with 1 μg of pcDNA3-PAH expression vector (wt or mutant PAH constructs), using the lipofectamine system (Gibco, Invitrogen) as described by the manufacturer. Pharmacological chaperones were added after 5 h of transfection (final concentration 40 μM ligand in DMSO 1%), incubated for 24 h and cells were then harvested and stored at −80° C. […]
Western blot analyses were performed after SDS-PAGE (10% acrylamide) using as primary antibody a monoclonal mouse ant-human PAH (Chemicon, Australia) and as secondary antibody a goat anti-mouse HRP conjugate (Bio-Rad, US). Detection was performed using a chemiluminiscence method (ECL; Amersham Biosciences) and quantified an a Fluor-S™ Multilmager (Bio-Rad, US) using Quantify one v. […]
After transfection of A293 cells with constructs carrying wt-PAH and PKU mutants cDNA, the cells were incubated for 24 h in the presence or absence of 40 μM of hit compounds 11 and 13. Cell were harvested and immunoreactive PAH protein and PAH activity were measured in soluble cell extracts. […]

EC50 (wt-PAH) [µM]	solubility [1]	SMILES	PAH activity enhancement [2]
~3	not soluble	Cc1ccnc(-n2c(=S)[nH]c3sc(C)c(C)c3c2=O)c1 [Compound 13, 5,6-dimethyl-3-(4-methyl-2-pyridinyl)-2-thioxo-2,3 dihydrothieno[2,3-d]pyrimidin-4(1H)-one]	40-50%
~30	not soluble	Nc1c(-c2ccc3ccccc3n2)c2ccc([N+](=O)[O-])cc2c(=O)n1Cc1ccccc1 [Compound 11, 3-amino-2-benzyl-7-nitro-4-(2-quinolyl)-1,2-dihydroisoquinolin-1-one]	60-100%
